Data published in patent US6509319B1, “EDTA and other chelators with or without antifungal antimicrobial agents for the prevention and treatment of fungal infections” (Board of Regents, The University of Texas System, priority 1997, dated 2003).

What was measured:
[1] = cited from earlier work
Fusarium oxysporum = details: 0.35 mg EDTA per mL, Mueller-Hinton, in vitro
Method: (§1) These figures are discussed elsewhere in the Detailed Description section. A spectrophotometer was used at a frequency of 660 nm to measure the absorbency of the solution.
(§2) For molds, all inocula were started at 1×10^4 conidia/mL. For yeast and bacteria, all inocula were started at 1×10^6 cfu/mL. The medium used was Mueller-Hinton.
(§3) The concentration of chelator in these studies was 0.35 mg EDTA per mL water.

Aspergillus terreus = details: 0.35 mg EDTA per mL, Mueller-Hinton, in vitro
Method: as §1, §2, §3

Candida krusei = details: 0.35 mg EDTA per mL, in vitro
Method: as §1, §2, §3

Aspergillus flavus = details: 0.35 mg EDTA per mL, in vitro
Method: as §1, §2, §3

Row | SMILES | solubility in aqueous solution [1] | inhibitory effect on growth (Fusarium oxysporum) | inhibitory effect on growth (Aspergillus terreus) | inhibitory effect on growth (Candida krusei; Mueller-Hinton) | time after contact at which the inhibitory effect is noticeable (Candida krusei) | inhibitory effect on growth relative to the control population (Aspergillus flavus; Mueller-Hinton) | time after application from which the inhibitory effect is most clearly noticeable (Aspergillus flavus)
1 | C[C@@H]1[C@H](O)[C@@H](C)/C=C/C=C/C=C/C=C/C=C/C=C/C=C/[C@H](O[C@@H]2O[C@H](C)[C@@H](O)[C@H](N)[C@@H]2O)C[C@@H]2O[C@](O)(C[C@@H](O)C[C@@H](O)[C@H](O)CC[C@@H](O)C[C@@H](O)CC(=O)O[C@H]1C)C[C@H](O)[C@H]2C(=O)O [Amphotericin B] | not soluble | – | – | – | – | – | –
2 | O=C(O)CN(CCN(CC(=O)O)CC(=O)O)CC(=O)O [EDTA, Ethylenediamine-N,N,N′,N′,-tetraacetic acid] | – | inhibitory effect | inhibitory effect | inhibitory effect | only a few hours | inhibitory effect | 12 h
